In article PMC9264368, “Structural Analysis and Development of Notum Fragment Screening Hits” (ACS Chemical Neuroscience, 2022):
Like-named read-outs stand apart in the source and are kept apart here.

What was measured:
Notum [1] = molecular target: T1, Notum (Homo sapiens, UniProt Q6P988, C330S); details: for fold improvement in Notum inhibition: versus parent: 7 vs 26, 16a vs 16, 15a vs 15, 7c vs 7b; for IC50: read-out: Notum IC50, Table S1, mean ± s.d. of N = 2-4 unless stated; for LE (ligand efficiency): LE = 1.4(−pIC50)/HAC; for LLE (lipophilic ligand efficiency): LLE = pIC50 – clogP; for LE / LLE: supplementary CSV
T1 sequence (Q6P988 81-451 C330S): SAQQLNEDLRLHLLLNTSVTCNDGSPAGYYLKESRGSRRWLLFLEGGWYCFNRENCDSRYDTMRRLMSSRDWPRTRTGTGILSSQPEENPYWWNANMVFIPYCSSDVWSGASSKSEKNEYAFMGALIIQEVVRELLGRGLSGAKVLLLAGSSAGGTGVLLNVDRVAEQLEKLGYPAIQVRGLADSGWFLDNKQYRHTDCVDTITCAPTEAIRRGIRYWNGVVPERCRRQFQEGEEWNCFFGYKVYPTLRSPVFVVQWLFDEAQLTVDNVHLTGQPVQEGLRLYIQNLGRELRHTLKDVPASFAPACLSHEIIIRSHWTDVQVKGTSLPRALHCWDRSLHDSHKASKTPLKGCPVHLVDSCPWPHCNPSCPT

Notum [2] = molecular target: T1, Notum; experiment: biochemical
[3] = Notum IC50, OPTS substrate, 10-point curves 30 nM to 1 mM, mean ± s.d. of N = 2–4 unless stated, Table 1 and figures
[4] = IC50 (µM), supplementary CSV, Notum IC50 values for 1–58
[5] = pIC50, Table 1, Notum OPTS assay

Row | IC50 (Notum [2]; [3]) [µM] | LE (ligand efficiency) (Notum [1]) | LLE (lipophilic ligand efficiency) (Notum [1]) | LE (Notum [1]) | LLE (Notum [1]) | SMILES | further results
1 | 1.4 ± 0.1 | – | – | – | – | FC(F)(F)c1cc(-c2cc[nH]n2)ccc1Cl [16a] | fold improvement in Notum inhibition (Notum [1]): 2.3 fold
2 | 16 ± 1.5 | – | – | – | – | FC(F)(F)c1cc(CNCc2ccc3c(c2)OCO3)ccc1Cl [28a, 1-(Benzo[d][1,3]dioxol-5-yl)-N-(4-chloro-3-(trifluoromethyl)benzyl)methanamine] | –
3 | > 1000 | – | – | – | – | CCNC(=O)Nc1cc(C)on1 [compound 1] | IC50 (Notum [2]; [4]): > 1000 µM
4 | 54 ± 16 | 0.35 | 1.7 | 0.35 | 1.7 | OCc1ccc(-n2cnc3ccccc32)cc1 [compound 4, [4-(1H-1,3-Benzimidazol-1-yl-)phenyl]methanol] | –
5 | 700 ± 100 | 0.26 | 0.6 | 0.26 | 0.6 | Cc1nc2ccccn2c1C(=O)NCC(C)C [compound 10] | –
6 | > 1000 | – | – | – | – | Nc1ccc(S(=O)(=O)Nc2ccccn2)cc1 [compound 11, 4-Amino-N-(2-pyridin-2-yl)benzenesulfonamide] | IC50 (Notum [2]; [4]): > 1000 µM
7 | 280 ± 110 | 0.33 | 0.6 | 0.33 | 0.6 | Nc1ccccc1OCc1ccccc1 [compound 13, 2-(Benzyloxy)aniline] | –
8 | 34 ± 5.7 | 0.51 | 2.9 | 0.51 | 2.9 | COc1ccc(-c2cc[nH]n2)c(O)c1 [compound 17] | IC50 (Notum [2]; [5]): 31.6 µM
9 | 63 ± 12 | 0.32 | 3.0 | 0.32 | 3 | Nc1ccc(NCc2cccnc2)c(C(=O)O)c1 [compound 18] | –
10 | 750 ± 17 | 0.29 | 1.2 | 0.29 | 1.2 | C[C@H]1CCCCN1C(=O)N1CCOCC1 [compound 19] | –
11 | 110 ± 21 | 0.46 | 2.7 | 0.46 | 2.7 | Nc1nonc1N1CCCCC1 [compound 20] | IC50 (Notum [2]; [5]): 126 µM
12 | 93 ± 7 | 0.38 | 1.8 | 0.38 | 1.8 | CCOc1cccc(-c2nnc(N)s2)c1 [compound 22] | IC50 (Notum [2]; [5]): 100 µM
13 | > 1000 | – | – | – | – | CC(=O)Nc1ccc(OCC(=O)O)cc1 [compound 27, (4-Acetamidophenoxy)acetic acid] | IC50 (Notum [2]; [4]): > 1000 µM
14 | 120 ± 30 | 0.30 | 0.7 | 0.3 | 0.7 | CCc1ccc(OCC(=O)N2CCCCC2)cc1 [compound 31] | –
15 | 500 ± 64 | 0.33 | 1.6 | 0.33 | 1.6 | Nc1ccccc1Nc1ccccn1 [compound 33] | –
16 | 58 ± 19 | 0.33 | 1.9 | 0.33 | 1.9 | Cl.Oc1c(CN2CCOCC2)ccc2ccccc12 [compound 37] | –
17 | > 1000 | – | – | – | – | O=C(O)COc1ccc(N2C(=O)CCC2=O)cc1 [compound 39] | IC50 (Notum [2]; [4]): > 1000 µM
18 | > 100 | – | – | – | – | O=C1CN(C(=O)COc2ccccc2)CCN1 [compound 56] | IC50 (Notum [2]; [4]): > 100 µM

Further lines, the compound ahead of its results:

Row | SMILES | IC50 (Notum [2]; [3]) [µM] | LE (ligand efficiency) (Notum [1]) | LLE (lipophilic ligand efficiency) (Notum [1]) | LE (Notum [1]) | LLE (Notum [1]) | further results
19 | OCc1cn(-c2ccc(Cl)c(C(F)(F)F)c2Cl)nn1 [7c] | – | – | – | – | – | fold improvement in Notum inhibition (Notum [1]): 7 fold
20 | Cc1cccc2[nH]c(NC#N)nc12 [15a, N-(4-Methyl-1H-benzo[d]imidazol-2-yl)cyanamide] | 0.94 ± 0.06 | – | – | – | – | fold improvement in Notum inhibition (Notum [1]): 18 fold
21 | Cn1c(NC#N)nc2ccccc21 [15b] | – | – | – | – | – | IC50 (Notum [1]): 5 ± 0.77 µM
22 | N#CNc1nc2c(Cl)cccc2[nH]1 [15c] | – | – | – | – | – | IC50 (Notum [1]): 2.2 ± 0.31 µM
23 | N#CNc1nc2c(Br)cccc2[nH]1 [15d] | – | – | – | – | – | IC50 (Notum [1]): 2.3 ± 0.54 µM
24 | N#CNc1nc2c(C(F)(F)F)cccc2[nH]1 [15e] | – | – | – | – | – | IC50 (Notum [1]): 12 ± 1.4 µM
25 | COc1cccc2[nH]c(NC#N)nc12 [15f] | – | – | – | – | – | IC50 (Notum [1]): 14 ± 1.3 µM
26 | Cc1ccc2[nH]c(NC#N)nc2c1 [15g] | – | – | – | – | – | IC50 (Notum [1]): 100 ± 4.4 µM
27 | N#CNc1nc2cc(Cl)ccc2[nH]1 [15h] | – | – | – | – | – | IC50 (Notum [1]): 29 ± 16 µM
28 | N#CNc1nc2cc(Br)ccc2[nH]1 [15i] | – | – | – | – | – | IC50 (Notum [1]): 15 ± 3.7 µM
29 | N#CNc1nc2cc(C(F)(F)F)ccc2[nH]1 [15j] | – | – | – | – | – | IC50 (Notum [1]): 36 ± 5.7 µM
30 | Cc1cccc2c1nc(NC#N)n2C [15k] | – | – | – | – | – | IC50 (Notum [1]): 9.3 ± 3.8 µM
31 | Cc1cccc2nc(NC#N)n(C)c12 [15l] | – | – | – | – | – | IC50 (Notum [1]): 2.2 ± 0.48 µM
32 | Cc1ccc2[nH]c(NC#N)nc2c1C [15m] | – | – | – | – | – | IC50 (Notum [1]): 18 ± 5.1 µM
33 | CC(=O)Nc1cccc2nonc12 [compound 2] | 140 ± 31 | 0.42 | 2.5 | 0.42 | 2.5 | –
34 | c1cnc(Oc2ccc(-c3cc[nH]n3)cc2)nc1 [compound 5, 2-[4-(1H-Pyrazol-3-yl)phenoxy]pyrimidine] | 480 ± 82 | 0.25 | 1.3 | 0.25 | 1.3 | –
35 | COC(=O)c1ccccc1Oc1ccc(N)cc1 [compound 6, Methyl 2-(4-aminophenoxy)benzoate] | 260 ± 120 | 0.28 | 0.9 | 0.28 | 0.9 | –
36 | O=C(NCCc1ccncc1)NC1CCCCC1 [compound 9] | > 1000 | – | – | – | – | IC50 (Notum [2]; [4]): > 1000 µM

Row | SMILES | IC50 (Notum [2]; [3]) [µM] | LE (ligand efficiency) (Notum [1]) | LLE (lipophilic ligand efficiency) (Notum [1]) | LE (Notum [1]) | LLE (Notum [1]) | further results
37 | N#Cc1ccc(Cn2cnc3ccccc32)cc1 [compound 12, 4-(Benzimidazol-1-ylmethyl)benzonitrile] | 570 ± 20 | 0.25 | 0.7 | 0.25 | 0.7 | –
38 | O=C(O)Cc1ccc(-c2ccccc2)cc1 [compound 14, 2-[(1,1’-Biphenyl)-4-yl]acetic acid] | 58 ± 8.2 | 0.33 | 0.9 | 0.33 | 0.9 | –
39 | N#CNc1nc2ccccc2[nH]1 [compound 15] | 17 ± 0.9 | 0.56 | 3.5 | – | 3.5 | –
40 | Oc1c(F)cc(F)cc1-c1cc[nH]n1 [compound 16] | 3.3 ± 0.4 | 0.55 | 3.6 | 0.55 | 3.6 | IC50 (Notum [2]; [5]): 3.16 µM
41 | Cc1ccc(CN(C)Cc2ccccc2)o1 [compound 21] | 930 ± 69 | 0.26 | -0.4 | 0.26 | -0.4 | –
42 | N#CCN1CCN(c2cccc(Cl)c2)CC1 [compound 23] | 600 ± 59 | 0.28 | 0.7 | – | 0.7 | –
43 | NCc1cc(-c2ccccc2)no1 [compound 24] | 12 ± 3.2 | 0.53 | 3.7 | 0.53 | 3.7 | –
44 | CC(=O)Nc1ccc(Nc2ccccc2)cc1 [compound 25, N-(4-Anilinophenyl)acetamide] | 86 ± 21 | 0.36 | 1.6 | 0.36 | 1.6 | –
45 | c1ccc(CNCc2ccc3c(c2)OCO3)nc1 [compound 28, 1-(Benzo[d][1,3]dioxol-5-yl)-N-(pyridine-2-ylmethyl)methanamine] | 54 ± 6.2 | 0.33 | 3.2 | 0.33 | 3.2 | –
46 | O=C(NO)OCc1ccccc1 [compound 29, Benzyl N-hydroxycarbamate] | – | – | – | – | – | response in fluorescence in Notum OPTS assay (Notum [1]; at higher concentrations (>100 μM), likely assay interference): variable, supramaxial responses in fluoresence
47 | O=S1(=O)CCN(Cc2ccco2)CC1 [compound 30] | > 1000 | – | – | – | – | IC50 (Notum [2]; [4]): > 1000 µM
48 | c1cc2c(cc1CNC[C@H]1CCCO1)OCO2 [compound 32] | ~1000 | 0.25 | 0.9 | 0.25 | 0.9 | IC50 (Notum [2]; [4]): 1000 µM
49 | NNC(=O)c1ccccc1OCc1ccccc1 [compound 34] | 330 ± 11 | 0.27 | 1.4 | 0.27 | 1.4 | –
50 | COCC(=O)Nc1nc(-c2ccccc2)cs1 [compound 35] | 120 ± 24 | 0.32 | 1.6 | 0.32 | 1.6 | –
51 | CC1CCN(Cc2c[nH]c3ccccc23)CC1 [compound 38] | 120 ± 49 | 0.32 | 0.2 | 0.32 | 0.2 | –
52 | CCC(=O)Nc1ccc(C)cc1O [compound 42] | > 1000 | – | – | – | – | IC50 (Notum [2]; [4]): > 1000 µM
53 | CCOc1ccc(CC(=O)O)cc1 [compound 48] | > 1000 | – | – | – | – | IC50 (Notum [2]; [4]): > 1000 µM
54 | O=C(O)COCc1ccccc1 [compound 52] | > 1000 | – | – | – | – | IC50 (Notum [2]; IC50 (µM)): > 1000 µM
